Data on 14 compounds can be found in patent US10077261B2, “Imidazolin-5-one derivative useful as FASN inhibitors for the treatment of cancer” (Janssen Pharmaceutica NV, priority 2012, dated 2018).

For test [1], the system named is LNCaP-Vancouver prostate cells. Description: In vitro LNCaP Vancouver prostate cell proliferation assay in lipid reduced medium. The class given is cell-based. The following applies: read-out: pIC50 LNCaP_Vancouver prostate cell (converted).
The subject of test [2] is PC-3M-Luc-C6 prostate cells. Description: In vitro PC-3M-Luc-C6 prostate cell proliferation assay in lipid reduced medium. Type of test: cell-based. Conditions: 96 h, read-out: pIC50 PC-3M-Luc-C6 prostate cell (converted).
Test [3] relates to A2780 ovarian cells. Description: A2780 ovarian cell proliferation assay in lipid reduced medium, without palmitate (MTT). The class given is cell-based. Conditions: Homo sapiens, A2780, 96 h; read-out: pIC50 A2780 Ovarian Cell, Without Palmitate (converted).
The subject of test [4] is A2780 ovarian cells. In words: A2780 ovarian cell proliferation assay in lipid reduced medium, with palmitate (MTT). Type of test: cell-based. The following applies: Homo sapiens, A2780, 96 h; read-out: pIC50 A2780 Ovarian Cell, With Palmitate (converted). In short, it runs like this: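 Seeded cells were switched next day to lipid-reduced serum, exposed to compound and 25 μM palmitate complexed with fatty-acid-free BSA, and incubated 96 h. Proliferation was then determined by MTT absorbance at 544 nm, with a best-fit curve of signal against concentration.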

Test [5] addresses Fatty Acid Synthase Keto-reductase Domain (FASN KR) (Homo sapiens, UniProt P49327). Description: Fatty Acid Synthase keto-reductase domain (FASN KR) inhibition, NADPH oxidation at 340 nm.
Method: After 20 minutes incubation at room temperature the plate was measured again (T2).
The decrease in absorbance was calculated as (Absorbance before incubation T1)−(Absorbance following incubation T2).
A plot of Controlmin versus test compound concentration was fitted to a 4-parameter logistic curve using a non-linear least squares regression method.
For test [6], the target named is T1, hFASN enzyme (full length) (Homo sapiens, UniProt P49327).
T1 construct: 10 μL hFASN enzyme (full length, 300 ng, purified in house); made in house
T1 sequence (P49327 whole entry): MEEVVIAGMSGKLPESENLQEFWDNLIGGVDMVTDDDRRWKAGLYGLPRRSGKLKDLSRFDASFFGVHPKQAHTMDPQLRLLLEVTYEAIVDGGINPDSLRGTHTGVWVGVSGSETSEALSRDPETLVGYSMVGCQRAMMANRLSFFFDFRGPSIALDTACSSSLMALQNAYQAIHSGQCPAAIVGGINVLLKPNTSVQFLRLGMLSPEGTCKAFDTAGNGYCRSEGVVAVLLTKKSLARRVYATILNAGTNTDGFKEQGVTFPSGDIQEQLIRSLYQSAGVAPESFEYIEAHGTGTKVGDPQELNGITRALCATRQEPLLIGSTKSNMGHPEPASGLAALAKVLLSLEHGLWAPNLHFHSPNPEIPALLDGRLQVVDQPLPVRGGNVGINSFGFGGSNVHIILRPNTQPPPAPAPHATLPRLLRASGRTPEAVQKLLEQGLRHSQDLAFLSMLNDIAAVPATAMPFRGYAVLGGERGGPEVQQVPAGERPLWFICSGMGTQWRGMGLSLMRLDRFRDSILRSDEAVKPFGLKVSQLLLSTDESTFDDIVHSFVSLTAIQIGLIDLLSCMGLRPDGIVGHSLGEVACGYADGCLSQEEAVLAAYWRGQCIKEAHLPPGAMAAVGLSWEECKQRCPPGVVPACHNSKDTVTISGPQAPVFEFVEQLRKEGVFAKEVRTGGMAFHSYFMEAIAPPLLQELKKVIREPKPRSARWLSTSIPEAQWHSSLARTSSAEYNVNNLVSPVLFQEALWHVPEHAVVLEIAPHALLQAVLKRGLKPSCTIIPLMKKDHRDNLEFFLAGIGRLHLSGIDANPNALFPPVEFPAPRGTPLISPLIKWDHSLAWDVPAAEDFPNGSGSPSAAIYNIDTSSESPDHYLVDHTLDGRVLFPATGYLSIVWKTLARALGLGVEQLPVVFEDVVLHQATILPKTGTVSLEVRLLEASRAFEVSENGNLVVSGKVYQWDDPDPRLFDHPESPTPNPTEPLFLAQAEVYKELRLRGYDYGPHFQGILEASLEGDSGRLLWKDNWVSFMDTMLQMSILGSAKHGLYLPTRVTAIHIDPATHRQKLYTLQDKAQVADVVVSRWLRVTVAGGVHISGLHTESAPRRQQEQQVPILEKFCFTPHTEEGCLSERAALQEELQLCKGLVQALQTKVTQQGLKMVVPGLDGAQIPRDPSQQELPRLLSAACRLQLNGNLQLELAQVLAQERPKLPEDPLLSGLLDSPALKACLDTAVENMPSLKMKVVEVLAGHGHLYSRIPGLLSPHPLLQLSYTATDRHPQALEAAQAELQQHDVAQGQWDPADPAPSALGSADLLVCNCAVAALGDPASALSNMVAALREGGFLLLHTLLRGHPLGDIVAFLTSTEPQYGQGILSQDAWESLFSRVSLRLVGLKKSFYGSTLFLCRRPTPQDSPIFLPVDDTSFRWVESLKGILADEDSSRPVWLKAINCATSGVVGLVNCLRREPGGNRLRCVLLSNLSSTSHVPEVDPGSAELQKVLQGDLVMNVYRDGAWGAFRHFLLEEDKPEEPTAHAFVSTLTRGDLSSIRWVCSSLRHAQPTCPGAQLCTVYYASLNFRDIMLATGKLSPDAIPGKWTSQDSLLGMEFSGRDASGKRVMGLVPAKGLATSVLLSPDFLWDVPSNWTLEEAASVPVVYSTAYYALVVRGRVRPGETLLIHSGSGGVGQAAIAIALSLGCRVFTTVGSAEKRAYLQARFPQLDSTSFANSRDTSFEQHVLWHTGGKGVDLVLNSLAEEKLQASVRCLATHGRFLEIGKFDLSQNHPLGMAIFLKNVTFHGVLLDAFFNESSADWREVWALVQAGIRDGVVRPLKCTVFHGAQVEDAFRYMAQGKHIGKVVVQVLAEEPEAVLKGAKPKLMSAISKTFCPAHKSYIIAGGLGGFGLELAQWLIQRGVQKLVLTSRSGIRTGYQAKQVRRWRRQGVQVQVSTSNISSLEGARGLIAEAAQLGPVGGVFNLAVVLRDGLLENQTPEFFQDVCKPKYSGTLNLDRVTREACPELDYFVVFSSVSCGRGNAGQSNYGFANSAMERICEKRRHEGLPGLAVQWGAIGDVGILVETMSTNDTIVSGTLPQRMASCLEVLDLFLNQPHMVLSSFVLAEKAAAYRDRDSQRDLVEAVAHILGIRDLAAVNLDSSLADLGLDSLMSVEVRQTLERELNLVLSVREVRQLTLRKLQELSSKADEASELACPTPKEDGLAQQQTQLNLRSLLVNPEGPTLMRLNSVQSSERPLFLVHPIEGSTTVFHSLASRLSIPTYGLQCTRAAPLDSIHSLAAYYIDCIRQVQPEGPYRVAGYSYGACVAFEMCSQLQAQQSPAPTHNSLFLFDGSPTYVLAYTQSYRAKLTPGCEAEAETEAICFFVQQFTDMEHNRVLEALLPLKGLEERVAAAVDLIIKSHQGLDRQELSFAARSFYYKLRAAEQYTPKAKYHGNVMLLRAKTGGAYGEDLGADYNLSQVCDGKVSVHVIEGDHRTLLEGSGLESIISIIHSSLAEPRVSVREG
In words: Fatty Acid Synthase (FASN) inhibition scintillation proximity assay. Type of test: biochemical. Conditions: for inhibition at 10 µM: read-out: Human FASN % inhibition @ 10 μM, 10 μM test compound; for IC50: read-out: Human FASN pIC50 (converted). Summed up:
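Purified full-length hFASN (300 ng) converts ^3H-acetyl-CoA plus malonyl-CoA to ^3H-palmitate in 100 mM KH2PO4 pH 7.5, 1 mM DTT; compounds tested at 0.01–30 μM. Product captured on streptavidin imaging beads and read by LEADseeker at 610 nm after ≥24 h; 4-parameter logistic fit versus controls.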

Sequence of Fatty Acid Synthase Keto-reductase Domain (FASN KR) (P49327 whole entry, the tested form may be a part): as the sequence (P49327 whole entry) above

As to `O=C(N1CCCC1)N1CC(CN2C(=O)C3(CCOCC3)N=C2c2ccc(-c3ccc4cccnc4c3)cc2)C1` [compound 701, 3-{[1-(Pyrrolidin-1-ylcarbonyl)azetidin-3-yl]methyl}-2-(4-quinolin-7-ylphenyl)-8-oxa-1,3-diazaspiro[4.5]dec-1-en-4-one], the IC50 was 4.57 µM in test [1]; 1.26 µM in test [2]; 0.891 µM in the test with A2780 ovarian cells [3]; above 10 µM in the test on A2780 ovarian cells [4]; 3.89 µM in test [5]; 0.479 µM in test [6]. Moreover, in test [6], the inhibition at 10 µM turned out to be 95%.
With `O=C(C1CC1)N1CC(CN2C(=O)C3(CCOC3)N=C2c2ccc(-c3ccc4cccnc4c3)cc2)C1` (centres unmarked) [compound 714, 3-{[1-(Cycloprppylcarbonyl)azetidin-3-yl]methyl}-2-(4-quinolin-7-ylphenyl)-7-oxa-1,3-diazaspiro[4.4]non-1-en-4-one], the IC50 in test [1] is 5.25 µM; in test [2], 0.794 µM; in the test with A2780 ovarian cells [3] it was 0.933 µM; in the test with A2780 ovarian cells [4], above 10 µM; in test [5], 1.51 µM; in test [6], 0.363 µM. Further, the inhibition at 10 µM in test [6] came to 89%.
For the compound `O=C(N1CCCC1)N1CC(CN2C(=O)C3(CCOC3)N=C2c2ccc(-c3ccc4cccnc4c3)cc2)C1` (centres unmarked) [compound 717, 3-{[1-(Pyrrolidin-1-ylcarbonyl)azetidin-3-yl]methyl}-2-(4-quinolin-7-ylphenyl)-7-oxa-1,3-diazaspiro[4.4]non-1-en-4-one], the IC50 in test [1] was 5.01 µM; in test [2] it was 1.7 µM; with A2780 ovarian cells [3] it was 1.62 µM; in the test on A2780 ovarian cells [4], above 10 µM; in test [5], 2 µM; in test [6] it was 0.676 µM. For the same compound, the inhibition at 10 µM in test [6] turned out to be 87%.
Consider `COC(=O)N1CC2(C1)N=C(c1ccc(-c3ccc4cccnc4c3)cc1)N(C[C@@H]1CCN(C(=O)C(C)O)C1)C2=O` (stereo partly drawn) [compound 729, Methyl 7-{[(3R)-1-(2-hydroxypropanoyl)pyrrolidin-3-yl]methyl}-8-oxo-6-(4-quinolin-7-ylphenyl)-2,5,7-triazaspiro[3.4]oct-5-ene-2-carboxylate], for which the IC50 in test [1] is 8.71 µM; in test [2], 1.45 µM; in the test with A2780 ovarian cells [3], 1.29 µM; in the test on A2780 ovarian cells [4] it was above 10 µM; in test [5] it was 0.813 µM; in test [6], 0.309 µM. Also, the inhibition at 10 µM in test [6] came to 95%.
Turning to `C=CC(=O)N1CCC2(CC1)N=C(c1ccc(-c3ccc4ccoc4c3)cc1)N(C[C@@H]1CCN(C(=O)C3CC3)C1)C2=O` [compound 741, 8-Acryloyl-2-[4-(1-benzofuran-6-yl)phenyl]-3-{[(3R)-1-(cyclopropylcarbonyl)pyrrolidin-3-yl]methyl}-1,3,8-triazaspiro[4.5]dec-1-en-4-one], the IC50 was 2.75 µM in test [1]; around 1.62 µM in test [2]; around 2.51 µM in the test with A2780 ovarian cells [3]; above 10 µM with A2780 ovarian cells [4]; 0.537 µM in test [5]; 0.158 µM in test [6]. Further, the inhibition at 10 µM in test [6] stood at 102%.
Turning to `Cc1sc2ccc(-c3ccc(C4=NC5(CCN(CCO)CC5)C(=O)N4C[C@@H]4CCN(C(=O)C5CC5)C4)cc3)cc2c1C` [compound 742, 3-{[(3R)-1-(Cyclopropylcarbonyl)pyrrolidin-3-yl]methyl}-2-[4-(2,3-dimethyl-1-benzothiophen-5-yl)phenyl]-8-(2-hydroxyethyl)-1,3,8-triazaspiro[4.5]dec-1-en-4-one], the IC50 in test [1] was around 4.47 µM; in test [2], around 1.74 µM; with A2780 ovarian cells [3], around 2.51 µM; in the test with A2780 ovarian cells [4] it was around 6.03 µM; in test [5], 0.355 µM; in test [6], 0.191 µM. In test [6], the inhibition at 10 µM worked out at 99%.
Consider `CS(=O)(=O)N1CCC2(CC1)N=C(c1ccc(-c3ccc4occc4c3)cc1)N(C[C@@H]1CCN(C(=O)C3CC3)C1)C2=O` [compound 746, 2-[4-(1-Benzofuran-5-yl)phenyl]-3-{[(3R)-1-(cyclopropylcarbonyl)pyrrolidin-3-yl]methyl}-8-(methylsulfonyl)-1,3,8-triazaspiro[4.5]dec-1-en-4-one], for which the IC50 in test [1] was around 3.89 µM; in test [2] it was around 1.66 µM; in the test with A2780 ovarian cells [3], around 1.86 µM; in the test with A2780 ovarian cells [4], above 10 µM; in test [5] it was 1.07 µM; in test [6], 0.275 µM. The inhibition at 10 µM in test [6] came out at 94%.
Regarding `COCCN1CCC2(CC1)N=C(c1ccc(-c3ccc4[nH]ccc4c3)cc1)N(C[C@@H]1CCN(C(=O)C3CC3)C1)C2=O` [compound 747, 3-{[(3R)-1-(Cyclopropylcarbonyl)pyrrolidin-3-yl]methyl}-2-[4-(1H-indol-5-yl)phenyl]-8-(2-methoxyethyl)-1,3,8-triazaspiro[4.5]dec-1-en-4-one], the IC50 is 0.631 µM in test [1]; 0.0575 µM in test [2]; around 0.0741 µM in the test on A2780 ovarian cells [3]; above 10 µM in the test with A2780 ovarian cells [4]; 0.129 µM in test [5]; 0.0851 µM in test [6]. Besides, the inhibition at 10 µM in test [6] came to 96%.
Take `COCCN1CCC2(CC1)N=C(c1ccc(-c3ccc4[nH]ncc4c3)cc1)N(C[C@@H]1CCN(C(=O)C3CC3)C1)C2=O` [compound 748, 3-{[(3R)-1-(Cyclopropylcarbonyl)pyrrolidin-3-yl]methyl}-2-[4-(1H-indazxol-5-yl)phenyl]-8-(2-methoxyethyl)-1,3,8-trisazaspiro[4.5]dec-1-en-4-one]: the IC50 was 3.02 µM in test [1]; 0.575 µM in test [2]; around 0.224 µM in the test on A2780 ovarian cells [3]; above 10 µM in the test with A2780 ovarian cells [4]; 0.525 µM in test [5]; 0.355 µM in test [6]. Besides, the inhibition at 10 µM in test [6] worked out at 99%.
Regarding `COCCN1CCC2(CC1)N=C(c1ccc(-c3ccc4c(cnn4C)c3)cc1)N(C[C@@H]1CCN(C(=O)C3CC3)C1)C2=O` [compound 750, 3-{[(3R)-1-(Cyclopropylcarbonyl)pyrrolidin-3-yl]methyl}-8-(2-methoxyethyl)-2-[4-(1-methyl-1H-indazol-5-yl)phenyl]-1,3,8-triazaspiro[4.5]dec-1-en-4-one], the IC50 in test [1] is 3.16 µM; in test [2] it was 0.589 µM; with A2780 ovarian cells [3], 0.676 µM; in the test with A2780 ovarian cells [4], above 10 µM; in test [5], 1.15 µM; in test [6] it was 0.309 µM. Also, the inhibition at 10 µM in test [6] is 94%.
With `Cn1ncc2cc(-c3ccc(C4=NC5(CCN(C(=O)C(F)(F)F)CC5)C(=O)N4C[C@@H]4CCN(C(=O)C5CC5)C4)cc3)ccc21` [compound 752, 3-{[(3R)-1-(Cyclopropylcarbonyl)pyrrolidin-3-yl]methyl}-2-[4-(1-methyl-1H-indazol-5-yl)phenyl]-8-(trifluoroacetyl)-1,3,8-triazaspiro[4.5]dec-1-en-4-one], the IC50 in test [1] was 3.98 µM; in test [2], 1.91 µM; in the test with A2780 ovarian cells [3], 1.62 µM; in the test on A2780 ovarian cells [4], above 10 µM; in test [5], 1.05 µM; in test [6], 0.776 µM. Besides, the inhibition at 10 µM in test [6] was determined as 91%.
As to `CS(=O)(=O)N1CCC2(CC1)N=C(c1ccc(-c3ccc4[nH]ccc4c3)cc1)N(CC1CN(C(=O)C3CC3)C1)C2=O` [compound 762, 3-{[1-(Cyclopropylcarbonyl)azetidin-3-yl]methyl}-2-[4-(1H-indol-5-yl)phenyl]-8-(methylsulfonyl)-1,3,8-triazaspiro[4.5]dec-1-en-4-one], the IC50 is 3.89 µM in test [1]; 0.813 µM in test [2]; around 0.977 µM with A2780 ovarian cells [3]; above 10 µM with A2780 ovarian cells [4]; 0.759 µM in test [5]; 0.316 µM in test [6]. Besides, the inhibition at 10 µM in test [6] amounted to 95%.
As to `O=C(C1CC1)N1CC(CN2C(=O)C3(CCN(C(=O)C(F)(F)F)CC3)N=C2c2ccc(-c3ccc4[nH]ccc4c3)cc2)C1` [compound 765, 3-{[1-(Cyclopropylcarbonyl)azetidin-3-yl]methyl}-2-[4-(1H-indol-5-yl)phenyl]-8-(trifluoroacetyl)-1,3,8-triazaspiro[4.5]dec-1-en-4-one], the IC50 was 8.91 µM in test [1]; 2.09 µM in test [2]; 2.19 µM in the test with A2780 ovarian cells [3]; above 10 µM in the test on A2780 ovarian cells [4]; 0.832 µM in test [5]; 0.363 µM in test [6]. The inhibition at 10 µM in test [6] came out at 96%.
Take `N#Cc1ccc2cc(-c3ccc(C4=NC5(CC5)C(=O)N4CC4CN(C(=O)C5(O)CC5)C4)c(F)c3)ccc2c1` [compound 872, 6-(3-fluoro-4-(6-((1-(1-hydroxycyclopropanecarbonyl)azetidin-3-yl)methyl)-7-oxo-4,6-diazaspiro[2.4]hept-4-en-5-yl)phenyl)-2-naphthonitrile]: the IC50 in test [1] was 0.024 µM; in test [2], 0.00479 µM; in the test with A2780 ovarian cells [3] it was 0.00269 µM; in the test with A2780 ovarian cells [4] it was around 7.94 µM; in test [5], 0.0427 µM; in test [6], 0.0234 µM. Further, in test [6], the inhibition at 10 µM is 99%.
